Measured values: patent US20070135406A1, “Diazabicyclononene and tetrahydropyridine derivatives with a new side-chain” (priority 2003, published 2007)

Target: T1, human recombinant renin (Homo sapiens, UniProt P00797)
T1 sequence (P00797 67-406): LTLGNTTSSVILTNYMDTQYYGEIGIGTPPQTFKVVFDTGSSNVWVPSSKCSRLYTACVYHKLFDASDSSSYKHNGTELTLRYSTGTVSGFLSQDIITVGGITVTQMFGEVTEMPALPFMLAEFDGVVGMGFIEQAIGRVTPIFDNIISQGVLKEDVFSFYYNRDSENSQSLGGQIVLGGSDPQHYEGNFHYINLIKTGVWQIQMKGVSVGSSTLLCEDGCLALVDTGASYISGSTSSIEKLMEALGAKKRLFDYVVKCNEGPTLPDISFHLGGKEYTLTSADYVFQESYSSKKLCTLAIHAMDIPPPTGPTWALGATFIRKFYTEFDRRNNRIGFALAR
Assay: Inhibition of human recombinant renin (enzymatic in vitro assay, Ang I detected by EIA)
Format: biochemical
Details: human recombinant renin 0.16 ng/mL, synthetic human angiotensin(1-14) 0.5 μM, 37° C. for 3 h
Method: Inhibition of Human Recombinant Renin by the Compounds of the Invention The enzymatic in vitro assay was performed in 384well polypropylene plates (Nunc). The assay buffer consisted of 10 mM PBS (Gibco BRL) including 1 mM EDTA and 0.1% BSA. The incubates were composed of 50 μL per well of an enzyme mix and 2.5 μL of renin inhibitors in DMSO. The enzyme mix was premixed at 4° C. and consists of the following components: • human recombinant renin (0.16 ng/mL).synthetic human angiotensin(1-14) (0.5 μM) • hydroxyquinoline sulfate (1 mM) The mixtures were then incubated at 37° C. for 3 h. To determine the enzymatic activity and its inhibition, the accumulated Ang I was detected by an enzyme immunoassay (EIA) in 384well plates (Nunc). 5 μL of the incubates or standards were transferred to immuno plates which were previously coated with a covalent complex of Ang I and bovine serum albumin (Ang I—BSA). […] of Ang I-antibodies in essaybuffer above including 0.01% Tween 20 were added and a primary incubation made at 4° C. overnight The plates were washed 3 times with PBS including 0.01% Tween 20, and then incubated for 2 h at rt with an antirabbit-peroxidase coupled antibody (WA 934, Amersham).

IC50: 0.79 nM
SMILES: COCCCOc1nccc(CN(C(=O)C2=C(c3ccc(CCCOc4c(F)ccc(F)c4Cl)cc3)C[C@@H]3CC[C@H]2N3)C2CC2)c1C (racemic) [Example 1, (rac.)-(1R*,5S*)-3-{4-[3-(2-Chloro-3,6-difluorophenoxy)propyl]phenyl}-8-azabicyclo[3.2.1]oct-2-ene-2-carboxylic acid cyclopropyl-[2-(3-methoxy-propoxy)-3-methylpyridin-4-ylmethyl]amide]
